Columns and labels:
EGFR-L858R/T790M/C797S = target: T1, EGFR-L858R/T790M/C797S (Homo sapiens, UniProt P00533, C797S/L858R/T790M); experiment: EGFR degradation HTRF assay in H1975-clone #25 cells; type: cell-based; conditions: 16 h treatment; for DC50: H1975-clone #25 (L858R/T790M/C797S) cells, IC50 (DC50), read-out: DC50(nM) H1975 # 25-LTC; for Dmax: NCI-H1975, H1975-clone #25 (L858R/T790M/C797S) cells, maximum percentage of inhibition (degradation), read-out: Dmax (%) H1975 # 25-LTC
T1 construct: expressed in transfected cells; host or cells: H1975-clone #25 (lentiviral over-expression, endogenous EGFR knocked out)
Description: (§1) H1975-clone #28(Del19/T790M/C797S) and H1975-clone #25(L858R/T790M/C797S). EGFR-Del19/T790M/C797S and EGFR-L858R/T790M/C797S were stably expressed in H1975 cell lines by lentivirus-mediated over-expression, respectively. The EGFR over-expressed cells then underwent knockout, in which the EGFR targeting sgRNA was designed to only target the endogenous EGFR copies and preserve the exogenous EGFR copies. Followed by knockout, the edited H1975 cells were seeded in 96 well plates at the concentration of […], cultured for about 2 weeks to allow single clones formation. The formed clones were screened by DNA sequencing and whole exon sequencing analysis for the desired edition.
(§2) H1975-clone #28, and H1975-clone #25 were finally confirmed as homozygous Del19/T790M/C797S EGFR, and L858R/T790M/C797S EGFR clones, respectively.
(§3) H1975-#25 and H1975-#28 cells are treated with compounds diluted in 0.2% DMSO cell culture medium on day 2, incubate for 16 h, 37° C., 5% CO2. the final concentration of compounds in all assay is start with 10 uM, 5-fold dilution, total 8 doses were included.
(§4) After 16 h treatment, add HTRF lysis buffer to each well; seal the plate and incubate 1 hour at room temperature on a plate shaker; Once the cells are lysed, 16 μL of cell lysate are transferred to a PE 384-well HTRF detection plate; 4 μL of pre-mixed HTRF antibodies are added to each well; Cover the plate with a plate sealer, spin 1000 rpm for 1 min, Incubate overnight at room temperature; Read on BMG PheraStar with HTRF protocol (337 nm-665 nm-620 nm).
(§5) The inhibition (degradation) percentage of the compound was calculated by the following equation:
(§6) Inhibition percentage of Compound=100−100×(Signal−low control)/(High control−low control),
(§7) The IC50 (DC50) value of a compound can be obtained by fitting the following equation
(§8) Wherein, X and Y are known values, and IC50, Hillslope, Top and Bottom are the parameters obtained by fitting with software. Y is the inhibition percentage (calculated from the equation), X is the concentration of the compound; IC50 is the concentration of the compound when the 50% inhibition is reached. The smaller the IC50 value is, the stronger the inhibitory ability of the compound is. Vice versa, the higher the IC50 value is, the weaker the ability the inhibitory ability of the compound is; Hillslope represents the slope of the fitted curve, generally around 1 *; Bottom represents the minimum value of the curve obtained by data fitting, which is generally 0%±20%; Top represents the maximum value of the curve obtained by data fitting, which is generally 100%±20%. The experimental data were fitted by calculating and analyzing with Dotmatics data analysis software.

EGFR-Del19/T790M/C797S = experiment: EGFR degradation HTRF assay in H1975-clone #28 cells; type: cell-based; conditions: H1975-clone #28 (Del19/T790M/C797S) cells, 16 h treatment; for DC50: IC50 (DC50), read-out: DC50(nM) H1975 # 28 DTC; for Dmax (%) H1975 # 28 DTC: maximum percentage of inhibition (degradation)
Description: as §1, §2, §3, §4, §5, §6, §7, §8

T1 sequence (P00533 25-1210 T790M/C797S/L858R): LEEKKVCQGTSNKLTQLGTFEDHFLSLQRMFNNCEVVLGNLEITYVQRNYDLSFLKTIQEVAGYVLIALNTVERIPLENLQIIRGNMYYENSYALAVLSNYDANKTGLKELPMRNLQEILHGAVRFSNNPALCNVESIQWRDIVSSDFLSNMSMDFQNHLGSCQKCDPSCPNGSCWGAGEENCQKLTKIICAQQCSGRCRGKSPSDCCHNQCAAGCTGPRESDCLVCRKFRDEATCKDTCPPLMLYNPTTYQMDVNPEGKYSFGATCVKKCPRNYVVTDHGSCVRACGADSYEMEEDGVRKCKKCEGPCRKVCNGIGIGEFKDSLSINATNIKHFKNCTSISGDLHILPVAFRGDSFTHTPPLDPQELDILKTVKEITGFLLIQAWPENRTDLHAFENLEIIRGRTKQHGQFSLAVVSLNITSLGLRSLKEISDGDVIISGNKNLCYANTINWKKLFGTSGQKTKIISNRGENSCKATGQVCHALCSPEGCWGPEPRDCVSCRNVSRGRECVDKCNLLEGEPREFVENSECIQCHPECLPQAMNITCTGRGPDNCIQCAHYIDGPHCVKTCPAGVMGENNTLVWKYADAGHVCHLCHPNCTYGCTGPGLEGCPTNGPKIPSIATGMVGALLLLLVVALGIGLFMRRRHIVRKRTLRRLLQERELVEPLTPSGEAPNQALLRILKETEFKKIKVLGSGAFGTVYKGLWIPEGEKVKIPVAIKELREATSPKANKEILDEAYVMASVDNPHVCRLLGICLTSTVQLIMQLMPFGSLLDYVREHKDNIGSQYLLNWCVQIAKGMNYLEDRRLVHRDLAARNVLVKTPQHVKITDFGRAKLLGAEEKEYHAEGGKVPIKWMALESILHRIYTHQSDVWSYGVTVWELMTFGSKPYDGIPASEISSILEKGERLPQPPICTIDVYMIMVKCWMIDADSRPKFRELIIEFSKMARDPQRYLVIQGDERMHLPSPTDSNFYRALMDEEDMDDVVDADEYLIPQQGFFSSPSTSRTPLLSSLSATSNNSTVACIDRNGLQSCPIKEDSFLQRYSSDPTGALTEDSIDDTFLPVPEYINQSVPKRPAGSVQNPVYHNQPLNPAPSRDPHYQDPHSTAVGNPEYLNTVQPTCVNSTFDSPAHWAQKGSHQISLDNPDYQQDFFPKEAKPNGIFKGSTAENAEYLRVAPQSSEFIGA

Structure (SMILES) | DC50 (EGFR-L858R/T790M/C797S) [nM] | Dmax (EGFR-L858R/T790M/C797S) [%] | DC50 (EGFR-Del19/T790M/C797S) [nM] | Dmax (%) H1975 # 28 DTC (EGFR-Del19/T790M/C797S) [%]
CCc1cc(Nc2ncc(Cl)c(Nc3ccc4nc(C)c(F)cc4c3P(C)(C)=O)n2)c(OC)cc1N1CCC2(CC1)CCN(C1CCN(c3cc(F)c([C@H]4CCC(=O)NC4=O)c(F)c3)CC1)CC2 [Example 2, (R)-3-(4-(4-(9-(4-((5-chloro-4-((5-(dimethylphosphoryl)-3-fluoro-2-methylquinolin-6-yl)amino)pyrimidin-2-yl)amino)-2-ethyl-5-methoxyphenyl)-3,9-diazaspiro[5.5]undecan-3-yl)piperidin-1-yl)-2,6-difluorophenyl)piperidine-2,6-dione] | 3.4 | 92 | 3.5 | 89
CCc1cc(Nc2ncc(Br)c(Nc3ccc4nc(C)c(F)cc4c3P(C)(C)=O)n2)c(OC)cc1N1CCC2(CCN(CCCc3cccc4c3n(C)c(=O)n4C3CCC(=O)NC3=O)CC2)CC1 (stereo not drawn) [Example 28, 3-(4-(3-(9-(4-((5-bromo-4-((5-(dimethylphosphoryl)-3-fluoro-2-methylquinolin-6-yl)amino)pyrimidin-2-yl)amino)-2-ethyl-5-methoxyphenyl)-3,9-diazaspiro[5.5]undecan-3-yl)propyl)-3-methyl-2-oxo-2,3-dihydro-1H-benzo[d]imidazol-1-yl)piperidine-2,6-dione] | 2.2 | 87 | 1 | 80
CCc1ncc2c(P(C)(C)=O)c(Nc3nc(Nc4cc(C)c(N5CCC6(CCN(CCc7cc(F)c([C@H]8CCC(=O)NC8=O)c(F)c7)CC6)CC5)cc4OC)ncc3Cl)ccc2n1 [Example 42, (R)-3-(4-(2-(9-(4-((5-chloro-4-((5-(dimethylphosphoryl)-2-ethylquinazolin-6-yl)amino)pyrimidin-2-yl)amino)-5-methoxy-2-methylphenyl)-3,9-diazaspiro[5.5]undecan-3-yl)ethyl)-2,6-difluorophenyl)piperidine-2,6-dione] | 4.9 | 85 | 1.5 | 93
CCc1cc(Nc2ncc(Br)c(Nc3ccc4nc(C)c(F)cc4c3P(C)(C)=O)n2)c(OC)cc1N1CCC2(CCN(CC3CCN(c4ccc5c(c4)C(=O)N(C4CCC(=O)NC4=O)C5=O)CC3)CC2)CC1 (stereo not drawn) [Example 46, 5-(4-((9-(4-((5-bromo-4-((5-(dimethylphosphoryl)-3-fluoro-2-methylquinolin-6-yl)amino)pyrimidin-2-yl)amino)-2-ethyl-5-methoxyphenyl)-3,9-diazaspiro [5.5]undecan-3-yl)methyl)piperidin-1-yl)-2-(2,6-dioxopiperidin-3-yl)isoindoline-1,3-dione] | 5.4 | 89 | 3.3 | 80
CCc1cc(Nc2ncc(Br)c(Nc3ccc4nc(C)c(F)cc4c3P(C)(C)=O)n2)c(OC)cc1N1CCC2(CCN(CC3CCN(c4cccc5c4C(=O)N(C4CCC(=O)NC4=O)C5=O)CC3)CC2)CC1 (stereo not drawn) [Example 45, 4-(4-((9-(4-((5-bromo-4-((5-(dimethylphosphoryl)-3-fluoro-2-methylquinolin-6-yl)amino)pyrimidin-2-yl)amino)-2-ethyl-5-methoxyphenyl)-3,9-diazaspiro[5.5]undecan-3-yl)methyl)piperidin-1-yl)-2-(2,6-dioxopiperidin-3-yl)isoindoline-1,3-dione] | 7.4 | 86 | 7.7 | 81
CCc1ncc2c(P(C)(C)=O)c(Nc3nc(Nc4cc(CC)c(N5CCC(N6CCN(CC7CCN(c8ccc9c(c8)CN(C8CCC(=O)NC8=O)C9=O)CC7)CC6)CC5)cc4OC)ncc3Br)ccc2n1 (stereo not drawn) [Example 35, 3-(5-(4-((4-(1-(4-((5-bromo-4-((5-(dimethylphosphoryl)-2-ethylquinazolin-6-yl)amino)pyrimidin-2-yl)amino)-2-ethyl-5-methoxyphenyl)piperidin-4-yl)piperazin-1-yl)methyl)piperidin-1-yl)-1-oxoisoindolin-2-yl)piperidine-2,6-dione] | 1.3 | 83 | 1.2 | 79
CCOc1cc(N2CCC(N3CCC4(CC3)CN(c3cc(F)c([C@H]5CCC(=O)NC5=O)c(F)c3)C4)CC2)c(CC)cc1Nc1ncc(Br)c(Nc2ccc3nc(CC)ncc3c2P(C)(C)=O)n1 (single isomer, unassigned) [Example 19] | 1.9 | 93 | 1.1 | 91

Second part, led by results:

DC50 (EGFR-L858R/T790M/C797S) [nM] | Dmax (EGFR-L858R/T790M/C797S) [%] | DC50 (EGFR-Del19/T790M/C797S) [nM] | Structure (SMILES) | Dmax (%) H1975 # 28 DTC (EGFR-Del19/T790M/C797S) [%]
7.6 | 89 | 3.8 | CCc1cc(Nc2ncc(Br)c(Nc3ccc4nc(C)c(F)cc4c3P(C)(C)=O)n2)c(OC)cc1N1CCC2(CCN(C[C@@H]3CCN(c4ccc5c(c4)C(=O)N(C4CCC(=O)NC4=O)C5=O)C3)CC2)CC1 (stereo partly drawn) [Example 49, 5-((S)-3-((9-(4-((5-bromo-4-((5-(dimethylphosphoryl)-3-fluoro-2-methylquinolin-6-yl)amino)pyrimidin-2-yl)amino)-2-ethyl-5-methoxyphenyl)-3,9-diazaspiro[5.5]undecan-3-yl)methyl)pyrrolidin-1-yl)-2-(2,6-dioxopiperidin-3-yl)isoindoline-1,3-dione] | 82
6.9 | 93 | 3.5 | COc1cc(N2CCC3(CC2)CCN(C2CCN(c4cc(F)c([C@H]5CCC(=O)NC5=O)c(F)c4)CC2)CC3)c(C)cc1Nc1ncc(Br)c(Nc2ccc3nc(C)ncc3c2P(C)(C)=O)n1 [Example 66, (R)-3-(4-(4-(9-(4-((5-bromo-4-((5-(dimethylphosphoryl)-2-methylquinazolin-6-yl)amino)pyrimidin-2-yl)amino)-5-methoxy-2-methylphenyl)-3,9-diazaspiro[5.5]undecan-3-yl)piperidin-1-yl)-2,6-difluorophenyl)piperidine-2,6-dione] | 91
2.8 | 90 | 1.7 | CCc1cc(Nc2ncc(Br)c(Nc3ccc4nc(C)c(F)cc4c3P(C)(C)=O)n2)c(OC)cc1N1CCC2(CCN(CC3CCN(c4ccc5c(c4)CN(C4CCC(=O)NC4=O)C5=O)CC3)CC2)CC1 (stereo not drawn) [Example 48, 3-(5-(4-((9-(4-((5-bromo-4-((5-(dimethylphosphoryl)-3-fluoro-2-methylquinolin-6-yl)amino)pyrimidin-2-yl)amino)-2-ethyl-5-methoxyphenyl)-3,9-diazaspiro[5.5]undecan-3-yl)methyl)piperidin-1-yl)-1-oxoisoindolin-2-yl)piperidine-2,6-dione] | 83
3.1 | 89 | 2.5 | CCc1cc(Nc2ncc(Br)c(Nc3ccc4nc(C)c(F)cc4c3P(C)(C)=O)n2)c(OC)cc1N1CCC2(CC1)CCN(C1CCN(c3cccc4c3n(C)c(=O)n4C3CCC(=O)NC3=O)CC1)CC2 (stereo not drawn) [Example 51, 3-(4-(4-(9-(4-((5-bromo-4-((5-(dimethylphosphoryl)-3-fluoro-2-methylquinolin-6-yl)amino)pyrimidin-2-yl)amino)-2-ethyl-5-methoxyphenyl)-3,9-diazaspiro[5.5]undecan-3-yl)piperidin-1-yl)-3-methyl-2-oxo-2,3-dihydro-1H-benzo[d]imidazol-1-yl)piperidine-2,6-dione] | 77
3.8 | 90 | 3.4 | CCc1cc(Nc2ncc(Br)c(Nc3ccc4nc(C)c(F)cc4c3P(C)(C)=O)n2)c(OC)cc1N1CCC2(CC1)CCN(C1CCN(c3cccc4c3C(C)(C)C(=O)N4C3CCC(=O)NC3=O)CC1)CC2 (stereo not drawn) [Example 52, 3-(4-(4-(9-(4-((5-bromo-4-((5-(dimethylphosphoryl)-3-fluoro-2-methylquinolin-6-yl)amino)pyrimidin-2-yl)amino)-2-ethyl-5-methoxyphenyl)-3,9-diazaspiro[5.5]undecan-3-yl)piperidin-1-yl)-3,3-dimethyl-2-oxoindolin-1-yl)piperidine-2,6-dione] | 79
